Test results as given in article PMC6478789, “A chemical toolbox for the study of bromodomains and epigenetic signaling” (Nature Communications, 2019).
Where two headings read alike, the source gives them in different places. One block for each compound: values may come before it.

What was measured:
Assay in all cases: BROMOscan ligand-binding assay
ATAD2A = molecular target: T1, ATAD2A (Homo sapiens, UniProt Q6PL18)
T1 sequence (Q6PL18 980-1092 limits assumed): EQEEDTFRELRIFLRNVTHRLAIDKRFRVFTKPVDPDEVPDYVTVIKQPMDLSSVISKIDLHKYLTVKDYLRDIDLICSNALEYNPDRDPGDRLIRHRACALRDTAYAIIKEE
Source text: (§1) BROMOscan is a binding assay based on the well-known KINOMEscan technology. This assay measures the binding of a DNA-tagged bromodomain to an immobilized BRD ligand. If an inhibitor is present, it will compete with the bromodomain binding to the immobilized ligand, resulting in reduction of a quantitative PCR (qPCR) signal in a dose-dependent manner.

BRD1 = molecular target: T2, BRD1 (Homo sapiens, UniProt O95696)
T2 sequence (O95696 562-666 limits assumed): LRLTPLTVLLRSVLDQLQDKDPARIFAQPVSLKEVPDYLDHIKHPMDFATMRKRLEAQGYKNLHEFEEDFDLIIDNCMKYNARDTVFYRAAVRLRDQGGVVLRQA
Source text: as §1

BRD2(1,2) = BRD2(1,2) (Homo sapiens, UniProt P25440)
BRD2(1,2), sequence (P25440 71-455 limits assumed): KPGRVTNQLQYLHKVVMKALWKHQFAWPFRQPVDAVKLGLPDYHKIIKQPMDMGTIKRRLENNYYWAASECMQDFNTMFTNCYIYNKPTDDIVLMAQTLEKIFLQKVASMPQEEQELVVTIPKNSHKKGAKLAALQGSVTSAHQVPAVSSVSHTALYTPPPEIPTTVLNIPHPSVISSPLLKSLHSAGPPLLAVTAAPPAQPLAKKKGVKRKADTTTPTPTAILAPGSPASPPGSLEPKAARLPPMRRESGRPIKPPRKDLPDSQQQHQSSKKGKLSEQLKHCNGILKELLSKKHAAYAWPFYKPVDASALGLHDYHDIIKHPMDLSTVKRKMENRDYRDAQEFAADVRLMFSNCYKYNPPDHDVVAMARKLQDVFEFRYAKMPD
Source text: as §1

BRD3(1) = BRD3(1) (Homo sapiens, UniProt Q15059)
BRD3(1), sequence (Q15059 34-140 limits assumed): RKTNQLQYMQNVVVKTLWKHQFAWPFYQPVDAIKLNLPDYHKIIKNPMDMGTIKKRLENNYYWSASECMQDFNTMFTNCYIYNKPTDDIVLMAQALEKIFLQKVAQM
Source text: as §1

BRD3(2) = BRD3(2) (Homo sapiens, UniProt Q15059)
BRD3(2), sequence (Q15059 306-415 limits assumed): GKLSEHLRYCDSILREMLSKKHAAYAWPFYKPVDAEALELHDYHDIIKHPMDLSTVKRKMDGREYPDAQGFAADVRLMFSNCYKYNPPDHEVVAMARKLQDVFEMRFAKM
Source text: as §1

BRD4(fl) = BRD4(fl) (Homo sapiens, UniProt O60885)
Source text: as §1

BRD9 = molecular target: T3, BRD9 (Homo sapiens, UniProt Q9H8M2)
T3 sequence (Q9H8M2 136-240 limits assumed): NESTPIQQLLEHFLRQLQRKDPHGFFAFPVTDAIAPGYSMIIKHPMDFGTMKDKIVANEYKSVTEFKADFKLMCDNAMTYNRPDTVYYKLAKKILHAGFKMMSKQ
Source text: as §1

CECR2 = CECR2 (Homo sapiens, UniProt Q9BXF3)
CECR2, sequence (Q9BXF3 434-538 limits assumed): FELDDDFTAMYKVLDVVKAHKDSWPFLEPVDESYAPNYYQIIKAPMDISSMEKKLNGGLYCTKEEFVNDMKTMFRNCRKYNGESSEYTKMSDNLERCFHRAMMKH
Source text: as §1

FALZ = FALZ (Homo sapiens, UniProt Q12830)
Source text: as §1

GCN5L2 = molecular target: T4, GCN5L2 (Homo sapiens, UniProt Q92830)
T4 sequence (Q92830 728-832 limits assumed): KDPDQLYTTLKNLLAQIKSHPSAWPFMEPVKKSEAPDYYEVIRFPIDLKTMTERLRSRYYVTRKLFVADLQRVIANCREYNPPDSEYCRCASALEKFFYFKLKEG
Source text: as §1

PBRM1(5) = PBRM1(5) (Homo sapiens, UniProt Q86U86)
PBRM1(5), sequence (Q86U86 653-763 limits assumed): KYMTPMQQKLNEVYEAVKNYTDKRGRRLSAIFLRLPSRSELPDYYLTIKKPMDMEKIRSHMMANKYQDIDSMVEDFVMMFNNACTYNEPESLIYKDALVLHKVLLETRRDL
Source text: as §1

TRIM24 = molecular target: T5, TRIM24 (Homo sapiens, UniProt O15164)
T5 sequence (O15164 899-1004 limits assumed): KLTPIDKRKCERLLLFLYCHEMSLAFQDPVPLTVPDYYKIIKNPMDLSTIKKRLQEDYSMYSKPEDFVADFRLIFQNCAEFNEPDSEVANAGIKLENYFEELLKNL
Source text: as §1

WDR9(2) = WDR9(2) (Homo sapiens, UniProt Q9NSI6)
WDR9(2), sequence (Q9NSI6 1313-1418 limits assumed): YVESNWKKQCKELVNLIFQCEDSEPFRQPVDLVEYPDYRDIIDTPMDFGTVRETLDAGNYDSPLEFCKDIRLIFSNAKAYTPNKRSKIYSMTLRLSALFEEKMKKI
Source text: as §1

EP300 = molecular target: T6, EP300 (Homo sapiens, UniProt Q09472)
T6 sequence (Q09472 1049-1156 limits assumed): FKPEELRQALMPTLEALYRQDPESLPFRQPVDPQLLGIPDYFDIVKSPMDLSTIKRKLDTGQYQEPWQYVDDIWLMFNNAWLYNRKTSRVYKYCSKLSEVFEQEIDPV
Source text: as §1

[1] = KD (BROMOscan), sheet prints no unit (nM)
[2] = read-out: KD (BROMOscan), sheet prints no unit (nM)

Structure (SMILES): COc1ccc(CCc2nc3cc(-c4c(C)noc4C)ccc3n2C[C@H](C)N2CCOCC2)cc1Cl [SGC-CBP30]
- Kd (ATAD2A; [1]): > 30000 nM
- Kd (ATAD2A; KD, BROMOscan, ATAD2A): > 100000 nM
- Kd (BRD1): 21 µM
- Kd (BRD2(1,2)): 0.65 µM
- Kd (BRD3(1); KD, BROMOscan, BRD3(1)): 740 nM
- Kd (BRD3(2); KD, BROMOscan, BRD3(2)): 2300 nM
- Kd (BRD4(fl)): 0.587 µM
- Kd (BRD9; KD, BROMOscan, BRD9): 6100 nM
- Kd (CECR2; KD, BROMOscan, CECR2): 7900 nM
- Kd (FALZ; KD, BROMOscan, FALZ): 81000 nM
- Kd (GCN5L2; [1]): > 30000 nM
- Kd (GCN5L2; KD, BROMOscan, GCN5L2): > 100000 nM
- Kd (PBRM1(5); KD, BROMOscan, PBRM1(5)): 49.7 µM
- Kd (TRIM24; KD, BROMOscan, TRIM24(Bromo.)): 12000 nM
- Kd (WDR9(2); KD, BROMOscan, WDR9(2)): 12000 nM

Structure (SMILES): CCCS(=O)(=O)c1nc(NC2CC2)cc(-c2ccc3c(ccn3C3CC(C)(C)NC(C)(C)C3)c2)n1 [NVS-CECR2-1]
- Kd (ATAD2A): > 30000 nM
- Kd (BRD1): > 30 µM
- Kd (BRD2(1,2)): 16 µM
- Kd (BRD3(1)): > 30000 nM
- Kd (BRD3(2)): > 30000 nM
- Kd (BRD4(fl)): 13 µM
- Kd (BRD9): 2100 nM
- Kd (CECR2): 14 nM
- Kd (EP300): > 30000 nM
- Kd (FALZ): 360 nM
- Kd (GCN5L2): > 30000 nM
- Kd (PBRM1(5)): > 30 µM
- Kd (TRIM24): > 30000 nM
- Kd (WDR9(2)): 30000 nM

Structure (SMILES): O=C(C=CN1[C@H]2CC[C@@H]1c1ncnc(NC3CC3)c1C2)c1ccccc1O [PFI-3 D1]
- Kd (ATAD2A; BROMOscan, ATAD2A): > 30000 nM
- Kd (BRD1; BROMOscan, BRD1): > 30 µM
- Kd (BRD2(1,2); BROMOscan, BRD2(1,2)): > 30 µM
- Kd (BRD3(1); BROMOscan, BRD3(1)): > 30000 nM
- Kd (BRD3(2); BROMOscan, BRD3(2)): > 30000 nM
- Kd (BRD4(fl); BROMOscan, BRD4(full-length,short-iso.)): > 30 µM
- Kd (BRD9; BROMOscan, BRD9): > 30000 nM
- Kd (CECR2; BROMOscan, CECR2): > 30000 nM
- Kd (EP300; BROMOscan, EP300): > 30000 nM
- Kd (FALZ; BROMOscan, FALZ): > 30000 nM
- Kd (GCN5L2; BROMOscan, GCN5L2): 23000 nM
- Kd (PBRM1(5); BROMOscan, PBRM1(5)): 0.036 µM
- Kd (TRIM24; BROMOscan, TRIM24(Bromo.)): > 30000 nM
- Kd (WDR9(2); BROMOscan, WDR9(2)): > 30000 nM

Structure (SMILES): Cc1noc(C)c1-c1ccc2c(c1)nc(CCc1ccccc1)n2CCN1CCOCC1 [CBP30-298]
- Kd (ATAD2A; BROMOscan Gene Symbol ATAD2A): > 150000 nM
- Kd (ATAD2A; [2]): > 30000 nM
- Kd (BRD1; BROMOscan Gene Symbol BRD1): 46 µM
- Kd (BRD3(1); BROMOscan Gene Symbol BRD3(1)): 960 nM
- Kd (BRD3(2); BROMOscan Gene Symbol BRD3(2)): 1600 nM
- Kd (BRD9; BROMOscan Gene Symbol BRD9): 12000 nM
- Kd (EP300; BROMOscan Gene Symbol EP300): 92 nM
- Kd (FALZ; BROMOscan Gene Symbol FALZ): > 50000 nM
- Kd (FALZ; [2]): > 30000 nM
- Kd (WDR9(2); BROMOscan Gene Symbol WDR9(2)): 30000 nM

Continued, values first:

- Kd (ATAD2A; ATAD2A): > 50000 nM
- Kd (BRD1; BRD1): 0.36 µM
- Kd (BRD2(1,2); BRD2(1,2)): 5.6 µM
- Kd (BRD3(1); BRD3(1)): 5500 nM
- Kd (BRD3(2); BRD3(2)): 16000 nM
- Kd (BRD9; BRD9): 2900 nM
- Kd (CECR2; CECR2): > 50000 nM
- Kd (CECR2; [2]): > 30000 nM
- Kd (EP300; EP300): 47000 nM
- Kd (FALZ; FALZ): 1600 nM
- Kd (GCN5L2; GCN5L2): 6900 nM
- Kd (PBRM1(5); PBRM1(5)): 4.5 µM
- Kd (TRIM24; TRIM24(Bromo.)): 1900 nM
- Kd (WDR9(2); WDR9(2)): > 50000 nM
- Kd (WDR9(2); [2]): > 30000 nM
Structure (SMILES): COc1cc2c(cc1NS(=O)(=O)c1ccc(Br)cc1C)n(C)c(=O)n2C [OF-1]

- Kd (ATAD2A; [1]): > 30000 nM
- Kd (ATAD2A; KD, ATAD2A): > 100000 nM
- Kd (BRD3(1); [1]): > 30000 nM
- Kd (BRD3(1); KD, BRD3(1)): > 100000 nM
- Kd (BRD3(2); [1]): > 30000 nM
- Kd (BRD3(2); KD, BRD3(2)): > 100000 nM
- Kd (BRD9; [1]): > 30000 nM
- Kd (BRD9; KD, BRD9): > 100000 nM
- Kd (CECR2; [1]): > 30000 nM
- Kd (CECR2; KD, CECR2): > 100000 nM
- Kd (EP300; [1]): > 30000 nM
- Kd (EP300; KD, EP300): > 100000 nM
- Kd (FALZ; [1]): > 30000 nM
- Kd (FALZ; KD, FALZ): > 100000 nM
- Kd (GCN5L2; [1]): > 30000 nM
- Kd (GCN5L2; KD, GCN5L2): > 100000 nM
- Kd (TRIM24; [1]): > 30000 nM
- Kd (TRIM24; KD, TRIM24(Bromo.)): > 100000 nM
- Kd (WDR9(2); [1]): > 30000 nM
- Kd (WDR9(2); KD, WDR9(2)): > 100000 nM
Structure (SMILES): O=C(C=CN1CC2CC1CN2c1ccccn1)c1ccccc1O (stereo not shown) [PFI-3]
